Source: ChEMBL document CHEMBL1156451 (J Biol Chem, 2007)
In brackets after ≈: the same amount, converted by molar mass. Activity calls are given as the source filed them. No cut-off for these calls is given here. Where a SMILES comes first, the peptide text is derived from it.

Legend:
Acinetobacter baumannii = test: Antibacterial activity against Acinetobacter baumannii ATCC 19606 after 24 hrs in Mueller-Hinton broth medium; assay type: functional; details: ATCC 19606, 24 h
Pseudomonas aeruginosa = test: Antibacterial activity against Pseudomonas aeruginosa CUN 4158-02 after 24 hrs in Mueller-Hinton broth medium; assay type: functional
[1] = system: Bordetella bronchiseptica; test: Antibacterial activity against Bordetella bronchiseptica CUN 11844-99 after 24 hrs in Mueller-Hinton broth medium; assay type: functional
Brucella abortus [2] = test: Antibacterial activity against Brucella abortus 9.49 (per-) after 48 hrs in Mueller-Hinton broth medium; assay type: functional
Escherichia coli [3] = test: Effect on morphology in Escherichia coli K12 ATCC 23716 assessed as formation of high electrodense clusters at 20 uM after 30 mins by transmission electron microscopy; assay type: functional, organism-based
Escherichia coli [4] = test: Antibacterial activity against Escherichia coli K12 ATCC 23716 after 24 hrs in Mueller-Hinton broth medium; assay type: functional; details: K12, 24 h
Brucella abortus [5] = test: Antibacterial activity against Brucella abortus 9.19 (per-) after 24 hrs in Mueller-Hinton broth medium; assay type: functional
Escherichia coli [6] = test: Effect on morphology in Escherichia coli K12 ATCC 23716 assessed as detachment of outer membrane from inner membrane at 4 uM after 30 mins by transmission electron microscopy; assay type: functional, organism-based
HeLa [7] = test: Cytotoxicity against human HeLa cells at 100 ug/ml after 24 hrs by MTT assay relative to control; assay type: functional
HeLa [8] = test: Cytotoxicity against human HeLa cells at 100 ug/ml after 24 hrs by neutral red uptake assay relative to control; assay type: functional
Staphylococcus aureus = test: Antibacterial activity against methicillin-resistant Staphylococcus aureus ATCC 43300 after 24 hrs in Mueller-Hinton broth medium; assay type: functional; details: ATCC 43300, 24 h
[9] = Toxicity in human erythrocytes assessed as hemolysis; assay type: cell-based; details: erythrocyte
Escherichia coli [10] = test: Antibacterial activity against Escherichia coli ATCC 25922 after 24 hrs in Mueller-Hinton broth medium; assay type: functional; details: ATCC 25922, 24 h
Escherichia coli [11] = test: Antibacterial activity against Escherichia coli K12 ATCC 23716 in 10% Luria-Bertani medium/90% Hepes buffer at pH 7.0; assay type: functional
[12] = Toxicity in human erythrocytes assessed as hemolysis at 100 ug/ml; assay type: cell-based, Erythrocyte; details: read-out: Activity

| SMILES | MBC (Acinetobacter baumannii) | MIC (Acinetobacter baumannii) | MBC (Pseudomonas aeruginosa) | MIC (Pseudomonas aeruginosa) | MBC [1] | MIC [1] | MIC (Brucella abortus [2]) | MBC (Escherichia coli [4]) | MIC (Escherichia coli [4]) | MBC (Brucella abortus [5]) | Activity (HeLa [7]) | Activity (HeLa [8]) | MBC (Staphylococcus aureus) | MIC (Staphylococcus aureus) | Activity [9] | MBC (Escherichia coli [10]) | MIC (Escherichia coli [10]) | MBC (Escherichia coli [11]) | MIC (Escherichia coli [11]) | hemolysis at 100 ug/ml [12] | other results |
| --- | --- | --- | --- | --- | --- | --- | --- | --- | --- | --- | --- | --- | --- | --- | --- | --- | --- | --- | --- | --- | --- |
| CC[C@H](C)[C@H](NC(=O)[C@H](CCCNC(=N)N)NC(=O)[C@H](CCCNC(=N)N)NC(=O)[C@H](CC(C)C)NC(=O)[C@H](Cc1ccccc1)NC(=O)[C@@H](NC(=O)[C@H](CCCNC(=N)N)NC(=O)[C@H](CCSC)NC(=O)[C@@H](NC(=O)[C@H](CCCCN)NC(=O)[C@H](CCCCN)NC(=O)[C@H](CS)NC(=O)[C@@H](NC(=O)CNC(=O)[C@H](CCCNC(=N)N)NC(=O)[C@H](CC(C)C)NC(=O)[C@@H](NC(=O)[C@@H](N)CCCCN)[C@@H](C)CC)C(C)C)[C@@H](C)CC)[C@@H](C)O)C(=O)N[C@@H](CO)C(=O)N[C@@H](CCCCN)C(=O)N[C@@H](CC(=O)O)C(=O)N[C@H](C(=O)N[C@@H](CC(C)C)C(=O)N[C@H](C(=O)NCC(=O)N[C@@H](CCCCN)C(=O)N[C@@H](CCCCN)C(=O)O)[C@@H](C)O)[C@@H](C)CC (H-KILRGVCKKIMRTFLRRISKDILTGKK-OH) | 2 µg/mL (≈ 0.624 µM) | 2 µg/mL (≈ 0.624 µM) | 32 µg/mL (≈ 9.99 µM) | 32 µg/mL (≈ 9.99 µM) | 4 µg/mL (≈ 1.25 µM) | 4 µg/mL (≈ 1.25 µM) | 32 µg/mL (≈ 9.99 µM) | 0.25 µg/mL (≈ 0.078 µM) | 0.25 µg/mL (≈ 0.078 µM) | 32 µg/mL (≈ 9.99 µM) | 28.7% | 31.6% | 256 µg/mL (≈ 79.9 µM) | 256 µg/mL (≈ 79.9 µM) | Toxic | 16 µg/mL (≈ 5 µM) | 16 µg/mL (≈ 5 µM) | 32 µg/mL (≈ 9.99 µM) | 16 µg/mL (≈ 5 µM) |  | Activity (Escherichia coli [3]): Active; Activity (Escherichia coli [6]): Active |
| CC[C@H](C)[C@H](NC(=O)[C@H](CCCCN)NC(=O)[C@H](CCCCN)NC(=O)[C@H](CO)NC(=O)[C@@H](NC(=O)CNC(=O)[C@H](CCCNC(=N)N)NC(=O)[C@H](CC(C)C)NC(=O)[C@@H](NC(=O)[C@@H](N)CCCCN)[C@@H](C)CC)C(C)C)C(=O)N[C@@H](CCSC)C(=O)N[C@@H](CCCNC(=N)N)C(=O)N[C@H](C(=O)N[C@@H](Cc1ccccc1)C(=O)N[C@@H](CC(C)C)C(=O)N[C@@H](CCCNC(=N)N)C(=O)N[C@@H](CCCNC(=N)N)C(=O)N[C@H](C(=O)N[C@@H](CC(C)C)C(=O)N[C@H](C(=O)NCC(=O)N[C@@H](CCCCN)C(=O)N[C@@H](CCCCN)C(N)=O)[C@@H](C)O)[C@@H](C)CC)[C@@H](C)O (H-KILRGVSKKIMRTFLRRILTGKK-NH2) | 4 µg/mL (≈ 1.46 µM) | 4 µg/mL (≈ 1.46 µM) | 4 µg/mL (≈ 1.46 µM) | 4 µg/mL (≈ 1.46 µM) | 2 µg/mL (≈ 0.729 µM) | 2 µg/mL (≈ 0.729 µM) | 4 µg/mL (≈ 1.46 µM) | 8 µg/mL (≈ 2.92 µM) | 8 µg/mL (≈ 2.92 µM) | 4 µg/mL (≈ 1.46 µM) | inactive |  | 256 µg/mL (≈ 93.3 µM) | 64 µg/mL (≈ 23.3 µM) | Toxic | 4 µg/mL (≈ 1.46 µM) | 4 µg/mL (≈ 1.46 µM) | 25 µg/mL (≈ 9.12 µM) | 19 µg/mL (≈ 6.93 µM) |  |  |
| CC[C@H](C)[C@H](NC(=O)[C@H](CCCNC(=N)N)NC(=O)[C@H](CCCNC(=N)N)NC(=O)[C@H](CC(C)C)NC(=O)[C@H](Cc1ccccc1)NC(=O)[C@@H](NC(=O)[C@H](CCCNC(=N)N)NC(=O)[C@H](CCSC)NC(=O)[C@@H](NC(=O)[C@H](CCCCN)NC(=O)[C@H](CCCCN)NC(=O)[C@H](CO)NC(=O)[C@@H](NC(=O)CNC(=O)[C@H](CCCNC(=N)N)NC(=O)[C@H](CC(C)C)NC(=O)[C@@H](NC(=O)[C@@H](N)CCCCN)[C@@H](C)CC)C(C)C)[C@@H](C)CC)[C@@H](C)O)C(=O)N[C@@H](CO)C(=O)N[C@@H](CCCCN)C(=O)N[C@@H](CC(=O)O)C(=O)N[C@H](C(=O)N[C@@H](CC(C)C)C(=O)N[C@H](C(=O)NCC(=O)N[C@@H](CCCCN)C(=O)N[C@@H](CCCCN)C(N)=O)[C@@H](C)O)[C@@H](C)CC (H-KILRGVSKKIMRTFLRRISKDILTGKK-NH2) | 2 µg/mL (≈ 0.628 µM) | 2 µg/mL (≈ 0.628 µM) | 4 µg/mL (≈ 1.26 µM) | 4 µg/mL (≈ 1.26 µM) | 4 µg/mL (≈ 1.26 µM) | 4 µg/mL (≈ 1.26 µM) | 2 µg/mL (≈ 0.628 µM) | 2 µg/mL (≈ 0.628 µM) | 2 µg/mL (≈ 0.628 µM) | 4 µg/mL (≈ 1.26 µM) | 38.4% | 24.8% | 128 µg/mL (≈ 40.2 µM) | 128 µg/mL (≈ 40.2 µM) | Toxic | 4 µg/mL (≈ 1.26 µM) | 4 µg/mL (≈ 1.26 µM) | 16 µg/mL (≈ 5.02 µM) | 8 µg/mL (≈ 2.51 µM) |  |  |
| CC[C@H](C)[C@H](NC(=O)[C@H](CCCNC(=N)N)NC(=O)[C@H](CCCNC(=N)N)NC(=O)[C@H](CC(C)C)NC(=O)[C@H](Cc1ccccc1)NC(=O)[C@@H](NC(=O)[C@H](CCCNC(=N)N)NC(=O)[C@H](CCSC)NC(=O)[C@@H](NC(=O)[C@H](CCCCN)NC(=O)[C@H](CCCCN)NC(=O)[C@H](CO)NC(=O)[C@@H](NC(=O)CNC(=O)[C@H](CCCNC(=N)N)NC(=O)[C@H](CC(C)C)NC(=O)[C@@H](NC(=O)[C@@H](N)CCCCN)[C@@H](C)CC)C(C)C)[C@@H](C)CC)[C@@H](C)O)C(=O)N[C@@H](CO)C(=O)N[C@@H](CCCCN)C(=O)N[C@@H](CC(=O)O)C(=O)N[C@H](C(=O)N[C@@H](CC(C)C)C(=O)N[C@H](C(=O)NCC(=O)N[C@@H](CCCCN)C(=O)N[C@@H](CCCCN)C(=O)O)[C@@H](C)O)[C@@H](C)CC (H-KILRGVSKKIMRTFLRRISKDILTGKK-OH) |  |  |  |  |  |  |  |  |  |  | 6.5% | 6.9% |  |  |  |  |  | 8 µg/mL (≈ 2.51 µM) | 8 µg/mL (≈ 2.51 µM) | < 5% |  |
| CC[C@H](C)[C@H](NC(=O)[C@H](CCCCN)NC(=O)[C@H](CCCCN)NC(=O)[C@H](CO)NC(=O)[C@@H](NC(=O)[C@@H](N)CCCCN)[C@@H](C)CC)C(=O)N[C@@H](CCSC)C(=O)N[C@@H](CCCNC(=N)N)C(=O)N[C@H](C(=O)N[C@@H](Cc1ccccc1)C(=O)N[C@@H](CC(C)C)C(=O)N[C@@H](CCCNC(=N)N)C(=O)N[C@@H](CCCNC(=N)N)C(N)=O)[C@@H](C)O (H-KISKKIMRTFLRR-NH2) | 256 µg/mL (≈ 153 µM) | 256 µg/mL (≈ 153 µM) | 256 µg/mL (≈ 153 µM) | 256 µg/mL (≈ 153 µM) | 32 µg/mL (≈ 19.1 µM) | 16 µg/mL (≈ 9.55 µM) | 16 µg/mL (≈ 9.55 µM) | 16 µg/mL (≈ 9.55 µM) | 16 µg/mL (≈ 9.55 µM) | > 256 µg/mL | 6.4% | 18.5% | > 256 µg/mL | > 256 µg/mL |  | 128 µg/mL (≈ 76.4 µM) | 64 µg/mL (≈ 38.2 µM) | 12.5 µg/mL (≈ 7.46 µM) | 12.5 µg/mL (≈ 7.46 µM) | < 5% |  |
| CC[C@H](C)[C@H](NC(=O)[C@H](CCCNC(=N)N)NC(=O)[C@H](CCCNC(=N)N)NC(=O)[C@H](CO)NC(=O)[C@@H](NC(=O)CNC(=O)[C@H](CCCNC(=N)N)NC(=O)[C@H](CC(C)C)NC(=O)[C@@H](NC(=O)[C@@H](N)CCCNC(=N)N)[C@@H](C)CC)C(C)C)C(=O)N[C@@H](CCSC)C(=O)N[C@@H](CCCNC(=N)N)C(=O)N[C@@H](CCCNC(=N)N)C(=O)N[C@H](C(=O)N[C@@H](CC(C)C)C(=O)N[C@H](C(=O)NCC(=O)N[C@@H](CCCNC(=N)N)C(=O)N[C@@H](CCCNC(=N)N)C(N)=O)[C@@H](C)O)[C@@H](C)CC [RILRGVSRRIM RR ILTGRR] (H-RILRGVSRRIMRRILTGRR-NH2) | 8 µg/mL (≈ 3.38 µM) | 8 µg/mL (≈ 3.38 µM) | 128 µg/mL (≈ 54.1 µM) | 32 µg/mL (≈ 13.5 µM) | 4 µg/mL (≈ 1.69 µM) | 4 µg/mL (≈ 1.69 µM) | 8 µg/mL (≈ 3.38 µM) | 16 µg/mL (≈ 6.77 µM) | 16 µg/mL (≈ 6.77 µM) | 32 µg/mL (≈ 13.5 µM) | 6.6% | 13.5% | 32 µg/mL (≈ 13.5 µM) | 32 µg/mL (≈ 13.5 µM) |  | 16 µg/mL (≈ 6.77 µM) | 16 µg/mL (≈ 6.77 µM) | 16 µg/mL (≈ 6.77 µM) | 16 µg/mL (≈ 6.77 µM) |  |  |
